Earlier results, collected in publication PMC4716540 (British Journal of Cancer, 2015).

Tested on: haematological and solid tumours
Details: early clinical trials; ref Zhou et al, 2012; cited from earlier work

Structure (SMILES)	Visual disorders (blurred vision, flashes, delayed light/dark accommodation, photophobia)
CC1(C)CC(=O)c2c(C(F)(F)F)nn(-c3ccc(C(N)=O)c(N[C@H]4CC[C@H](OC(=O)CN)CC4)c3)c2C1 [SNX-5422]	associated with visual disorders
CO[C@H]1/C=C\C=C(/C)C(=O)NC2=CC(=O)C(NCCN(C)C)=C(C[C@@H](C)C[C@H](OC)[C@H](O)[C@@H](C)/C=C(\C)[C@@H]1OC(N)=O)C2=O [alvespimycin]	associated with visual disorders
